Data as given in the RepoRT retention time repository.
Counter-ions that a name gives are not always drawn.

Assay: RP, Waters ACQUITY Premier BEH C18, 100 × 2.1 mm, 1.7 µm, 40 °C, 0.3 to 0.4 mL/min, estimated dead time 0.73 min; A: water + 0.1% formic acid; B: acetonitrile + 0.1% formic acid; gradient (min/%B) 0/0.5 0.1/0.5 10/80 10.1/99.5 12/0.5 12.1/0.5 14.5/0.5
Settings: stereoisomer not certain
Compound `COc1ccc(-c2cc(=O)c3c(OC)c(OC)c(OC)c(OC)c3o2)cc1OC` [NOBILETIN] has an LC retention time of 6.99 min. `CC(=O)OC1CC(=O)OC(C)(C)C2CC(=O)C3(C)C(CCC4(C)C(c5ccoc5)OC(=O)C5OC543)C12C` (stereo not drawn) [NOMILIN] gave an LC retention time of 7.05 min. With `NCC(O)c1ccc(O)c(O)c1` (stereo not drawn) [NORADRENALINE] the LC retention time was 0.887 min. Work on `O=c1c(O)c(-c2ccccc2)oc2cc(O)cc(O)c12` [NORIZALPININ] yielded an LC retention time of 7.12 min. Work on `CCCCC(N)C(=O)O` (stereo not drawn) [NORLEUCINE] yielded an LC retention time of 2.79 min. Work on `CC(CCC(=O)O)C1CCC2C3C(=O)CC4CC(O)CCC4(C)C3CCC12C` (stereo not drawn) [NUTRIACHOLIC ACID] yielded an LC retention time of 7.25 min. In the case of `CC(=O)OC(CC(=O)O)C[N+](C)(C)C` (stereo not drawn) [O-ACETYLCARNITINE], the LC retention time is reported as 1.48 min. `NC(CCOC(=O)CCC(=O)O)C(=O)O` (stereo not drawn) [O-SUCCINYL-HOMOSERINE] showed an LC retention time of 1.68 min. Compound `CCCCCCCCC=CCCCCCCCC(=O)OCC(O)CO` (stereo not drawn) [OLEOYL-GLYCEROL] has an LC retention time of 9.52 min. `CC=C1C(OC2OC(CO)C(O)C(O)C2O)OC=C(C(=O)OC)C1CC(=O)OCCc1ccc(O)c(O)c1` (stereo not drawn) [OLEUROPEIN] showed an LC retention time of 5.05 min. Compound `O=C(O)CCCCCCCCCCCO` [OMEGA-HYDROXYDODECANOATE] has an LC retention time of 6.99 min. In the case of `CCC(NC(=O)CCC(N)C(=O)O)C(=O)NCC(=O)O` (stereo not drawn) [OPHTHALMATE], the LC retention time is reported as 2.03 min. Compound `O=c1cc(-c2ccc(O)c(O)c2)oc2c(C3OC(CO)C(O)C(O)C3O)c(O)cc(O)c12` (stereo not drawn) [ORIENTIN] has an LC retention time of 5.18 min. `O=C(O)c1cc(=O)[nH]c(=O)[nH]1` [OROTATE] showed an LC retention time of 1.19 min. `O=C(O)Cc1ccccc1O` [ORTHO-HYDROXYPHENYLACETIC ACID] showed an LC retention time of 4.97 min. `O=C(O)CCCC(=O)C(=O)O` [OXOADIPATE] showed an LC retention time of 2.2 min. With `O=C(O)CCC(=O)C(=O)O` [OXOGLUTARATE] the LC retention time was 1.3 min. `Cc1ccc(OS(=O)(=O)O)cc1` [P-CRESOL SULFATE] gave an LC retention time of 4.57 min. In the case of `O=C(O)C(O)c1ccc(O)cc1` (stereo not drawn) [P-HYDROXYMANDELIC ACID], the LC retention time is reported as 2.48 min. Work on `CCCCCCC=CCCCCCCCC(=O)O` [PALMITOLEIC ACID] yielded an LC retention time of 8.15 min. In the case of `CCCCCCCCCCCCCCCC(=O)NCCO` [PALMITOYLETHANOLAMIDE], the LC retention time is reported as 8.84 min. Work on `CC(C)(CO)C(O)C(=O)NCCC(=O)O` (stereo not drawn) [PANTOTHENATE] yielded an LC retention time of 3.72 min. `Cn1c(=O)[nH]c2ncn(C)c2c1=O` [PARAXANTHINE] gave an LC retention time of 3.95 min. Work on `CCCCCCCCCCCC=CCCCCC(=O)O` [PETROSELINATE] yielded an LC retention time of 10 min. `O=S(=O)(O)Oc1ccccc1` [PHENOL SULFATE] showed an LC retention time of 1.17 min. For `NC(=O)CCC(NC(=O)Cc1ccccc1)C(=O)O` (stereo not drawn) [PHENYLACETYLGLUTAMINE], the LC retention time was 3.9 min. Work on `O=C(O)CNC(=O)Cc1ccccc1` [PHENYLACETYLGLYCINE] yielded an LC retention time of 4.21 min. With `O=C(O)C(=O)c1ccccc1` [PHENYLGLYOXYLIC ACID] the LC retention time was 5.53 min. In the case of `O=C(O)CNC(=O)CCc1ccccc1` [PHENYLPROPIONYLGLYCINE], the LC retention time is reported as 4.84 min. Work on `O=C(O)C(=O)Cc1ccccc1` [PHENYLPYRUVATE] yielded an LC retention time of 5.38 min. In the case of `O=C(CCc1ccc(O)cc1)c1c(O)cc(O)cc1O` [PHLORETIN], the LC retention time is reported as 6.03 min. `O=C(CCc1ccc(O)cc1)c1c(O)cc(O)cc1OC1OC(CO)C(O)C(O)C1O` (stereo not drawn) [PHLORIDZIN] showed an LC retention time of 5.01 min. Compound `O=C(O)CP(=O)(O)O` [PHOSPHONOACETATE] has an LC retention time of 0.959 min. Work on `O=C(O)c1ccccc1C(=O)O` [PHTHALIC ACID] yielded an LC retention time of 4.52 min. Work on `O=C(O)C1CCCCN1` (stereo not drawn) [PIPECOLATE] yielded an LC retention time of 1.33 min. With `O=C(C=CC=Cc1ccc2c(c1)OCO2)N1CCCCC1` [PIPERINE] the LC retention time was 7.22 min. Work on `NCc1[nH]cc(CCC(=O)O)c1CC(=O)O` [PORPHOBILINOGEN] yielded an LC retention time of 3.51 min. In the case of `CC(=O)C1CCC2C3CC=C4CC(OS(=O)(=O)O)CCC4(C)C3CCC12C` (stereo not drawn) [PREGNENOLONE SULFATE], the LC retention time is reported as 7.26 min. Compound `O=C(O)C1CCCN1` (stereo not drawn) [PROLINE] has an LC retention time of 0.916 min. For `CCC(=O)OC(CC(=O)[O-])C[N+](C)(C)C` (stereo not drawn) [PROPIONYLCARNITINE], the LC retention time was 0.894 min. `CCCOC(=O)c1ccc(O)cc1` [PROPYLPARABEN] showed an LC retention time of 6.78 min. In the case of `C=Cc1c(C)c2cc3[nH]c(cc4nc(cc5nc(cc1[nH]2)C(C)=C5CCC(=O)O)C(CCC(=O)O)=C4C)c(C)c3C=C` [PROTOPORPHYRIN], the LC retention time is reported as 9.14 min. `Nc1nc2nccnc2c(=O)[nH]1` [PTERIN] gave an LC retention time of 2.44 min. Work on `O=c1c(-c2ccc(O)cc2)coc2c(C3OC(CO)C(O)C(O)C3O)c(O)ccc12` (stereo not drawn) [PUERARIN] yielded an LC retention time of 3.76 min. With `c1ncc2[nH]cnc2n1` [PURINE] the LC retention time was 2.2 min. With `Cc1ncc(CO)c(C=O)c1O` [PYRIDOXAL] the LC retention time was 0.923 min. With `Cc1ncc(CO)c(CO)c1O` [PYRIDOXINE] the LC retention time was 2.1 min. With `Oc1ccccc1O` [PYROCATECHOL] the LC retention time was 3.85 min. Compound `Oc1cccc(O)c1O` [PYROGALLOL] has an LC retention time of 2.89 min. `O=C(O)c1ccc[nH]1` [PYRROLE-2-CARBOXYLATE] gave an LC retention time of 4.38 min. With `O=c1c(OC2OC(CO)C(O)C(O)C2O)c(-c2ccc(O)c(O)c2)oc2cc(O)cc(O)c12` (stereo not drawn) [QUERCETIN 3-GALACTOSIDE] the LC retention time was 4.41 min. `O=C(O)C1OC(Oc2c(-c3ccc(O)c(O)c3)oc3cc(O)cc(O)c3c2=O)C(O)C(O)C1O` (stereo not drawn) [QUERCETIN 3-O-GLUCURONIDE] showed an LC retention time of 4.41 min. With `O=c1c(O)c(-c2ccc(O)c(O)c2)oc2cc(O)cc(O)c12` [QUERCETIN] the LC retention time was 5.6 min. In the case of `CC1OC(Oc2c(-c3ccc(O)c(O)c3)oc3cc(O)cc(O)c3c2=O)C(O)C(O)C1O` (stereo not drawn) [QUERCITRIN], the LC retention time is reported as 4.68 min. Compound `O=C(O)C1(O)CC(O)C(O)C(O)C1` (stereo not drawn) [QUINATE] has an LC retention time of 0.92 min. `C=CC1CN2CCC1CC2C(O)c1ccnc2ccc(OC)cc12` (stereo not drawn) [QUININE] gave an LC retention time of 3.88 min. Work on `O=C(O)c1cccnc1C(=O)O` [QUINOLINATE] yielded an LC retention time of 1.61 min. With `O=c1cc[nH]c2c(O)cccc12` [QUINOLINE-4,8-DIOL] the LC retention time was 4.14 min. In the case of `OCC1OC(OCC2OC(OC3(CO)OC(CO)C(O)C3O)C(O)C(O)C2O)C(O)C(O)C1O` (stereo not drawn) [RAFFINOSE], the LC retention time is reported as 0.962 min. `CC(=O)Oc1cccc(O)c1` [RESORCINOL MONOACETATE] gave an LC retention time of 5.71 min. In the case of `Oc1ccc(C=Cc2cc(O)cc(O)c2)cc1` [RESVERATROL], the LC retention time is reported as 5.3 min. Work on `CC(C=CC1=C(C)CCCC1(C)C)=CC=CC(C)=CC(=O)O` [RETINOATE] yielded an LC retention time of 9.05 min. `CC1OC(O)C(O)C(O)C1O` (stereo not drawn) [RHAMNOSE] gave an LC retention time of 0.913 min. Compound `O=C(O)c1cc(O)c2c(c1)C(=O)c1cccc(O)c1C2=O` [RHEIN] has an LC retention time of 7.07 min. `Cc1cc2nc3c(=O)[nH]c(=O)nc-3n(CC(O)C(O)C(O)CO)c2cc1C` (stereo not drawn) [RIBOFLAVIN] showed an LC retention time of 4.4 min. In the case of `Cc1cn(C2OC(CO)C(O)C2O)c(=O)[nH]c1=O` (stereo not drawn) [RIBOTHYMIDINE], the LC retention time is reported as 1.24 min. Compound `O=C(C=Cc1ccc(O)c(O)c1)OC(Cc1ccc(O)c(O)c1)C(=O)O` (stereo not drawn) [ROSMARINATE] has an LC retention time of 5.44 min. For `C=C(C)C1Cc2c(ccc3c2OC2COc4cc(OC)c(OC)cc4C2C3=O)O1` (stereo not drawn) [ROTENONE], the LC retention time was 7.55 min. For `CC1OC(OCC2OC(Oc3c(-c4ccc(O)c(O)c4)oc4cc(O)cc(O)c4c3=O)C(O)C(O)C2O)C(O)C(O)C1O` (stereo not drawn) [RUTIN], the LC retention time was 4.25 min. Work on `Nc1ncnc2c1ncn2C1OC(CSCCC(N)C(=O)O)C(O)C1O` (stereo not drawn) [S-ADENOSYLHOMOCYSTEINE] yielded an LC retention time of 3.08 min. `C=CCSCC(N)C(=O)O` (stereo not drawn) [S-ALLYLCYSTEINE] gave an LC retention time of 1.22 min. Compound `OCc1ccccc1OC1OC(CO)C(O)C(O)C1O` (stereo not drawn) [SALICIN] has an LC retention time of 2.95 min. Work on `NC(=O)c1ccccc1O` [SALICYLAMIDE] yielded an LC retention time of 5.04 min. For `O=C(O)c1ccccc1O` [SALICYLATE], the LC retention time was 5.97 min. `O=C(O)CNC(=O)c1ccccc1O` [SALICYLURIC ACID] gave an LC retention time of 4.56 min. Work on `CC1NCCc2cc(O)c(O)cc21` (stereo not drawn) [SALSOLINOL] yielded an LC retention time of 2.56 min. Compound `C=CC(C)(O)CCC1C(C)(O)CCC2C(C)(C)CCCC21C` (stereo not drawn) [SCLAREOL] has an LC retention time of 8.18 min. In the case of `COc1cc2ccc(=O)oc2cc1OC` [SCOPARONE], the LC retention time is reported as 5.34 min. In the case of `COc1cc2ccc(=O)oc2cc1O` [SCOPOLETIN], the LC retention time is reported as 4.62 min. In the case of `O=C(O)CCCCCCCCC(=O)O` [SEBACATE], the LC retention time is reported as 6.03 min. `COc1cc(CC(COC2OC(CO)C(O)C(O)C2O)C(COC2OC(CO)C(O)C(O)C2O)Cc2ccc(O)c(OC)c2)ccc1O` (stereo not drawn) [SECOISOLARICIRESINOL DIGLUCOSIDE] gave an LC retention time of 4.58 min. In the case of `C[Se]CCC(N)C(=O)O` (stereo not drawn) [SELENOMETHIONINE], the LC retention time is reported as 1.09 min. `NCCc1c[nH]c2ccc(O)cc12` [SEROTONIN] gave an LC retention time of 3.44 min. `COc1cc(C2Oc3cc(C4Oc5cc(O)cc(O)c5C(=O)C4O)ccc3OC2CO)ccc1O` (stereo not drawn) [SILIBININ] gave an LC retention time of 5.88 min. Compound `COc1cc(C=CC(=O)O)cc(OC)c1O` [SINAPIC ACID] has an LC retention time of 4.58 min. `C=CCC(=NOS(=O)(=O)O)SC1OC(CO)C(O)C(O)C1O` (stereo not drawn) [SINIGRIN] gave an LC retention time of 2.03 min. In the case of `CC=CC=CC(=O)O` [SORBATE], the LC retention time is reported as 5.71 min. For `CCCCCCCCCCCCCCCC(O)C(N)CO` (stereo not drawn) [SPHINGANINE], the LC retention time was 7.51 min. Work on `CCCCCCCCCCCCCC=CC(O)C(N)CO` (stereo not drawn) [SPHINGOSINE] yielded an LC retention time of 7.39 min. `OCC1OC(OCC2OC(OCC3OC(OC4(CO)OC(CO)C(O)C4O)C(O)C(O)C3O)C(O)C(O)C2O)C(O)C(O)C1O` (stereo not drawn) [STACHYOSE] showed an LC retention time of 0.921 min. `CCCCCCCCCCCCCCCCCC(=O)O` [STEARATE] showed an LC retention time of 11 min. Work on `CCCCCCCCCCCCCCCCCC(=O)NCCO` [STEAROYLETHANOLAMIDE] yielded an LC retention time of 9.74 min. For `O=C(O)CCCCCCC(=O)NCC(=O)O` [SUBERYLGLYCINE], the LC retention time was 3.79 min.
